Data published in ChEMBL document CHEMBL1152015, “One-step synthesis of radioiodinated biotin derivatives” (Bioorg Med Chem Lett, 1996).

Tests used:
[1] = Compound was evaluated for its affinity towards avidin
[2] = compound was evaluated for its affinity towards streptavidin.

Work on `O=C(O)CCCC[C@@H]1SC[C@@H]2NC(=O)N[C@@H]21` yielded a Ka [1] of 1e+16 M⁻¹ and a Ka [2] of 1e+16 M⁻¹.
